Assay results: US10501440B2, “Heteroarylcarboxamide derivatives as plasma kallikrein inhibitors” (Boehringer Ingelheim International GmbH, priority 2017, dated 2019)

What follows are compounds tested against KLKB1 (Homo sapiens (Human), UniProt P03952) (assay: Inhibition of KLKB1 using an endpoint assay (fluorogenic substrate H-Pro-Phe-Arg-AMC)). Details: endpoint assay, 1 h at room temperature, 0.10 μM H-Pro-Phe-Arg-AMC; read-out: IC50.
Chain of KLKB1 (P03952 391-638 limits assumed): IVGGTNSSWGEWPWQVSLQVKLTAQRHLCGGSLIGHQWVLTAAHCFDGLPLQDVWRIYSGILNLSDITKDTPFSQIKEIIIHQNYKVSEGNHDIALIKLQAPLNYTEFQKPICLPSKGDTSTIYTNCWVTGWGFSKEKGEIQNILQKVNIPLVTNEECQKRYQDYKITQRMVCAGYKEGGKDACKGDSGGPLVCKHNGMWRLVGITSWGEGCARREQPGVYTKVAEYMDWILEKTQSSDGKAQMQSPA
Chain of KLKB1 (P03952 20-390 partner limits assumed): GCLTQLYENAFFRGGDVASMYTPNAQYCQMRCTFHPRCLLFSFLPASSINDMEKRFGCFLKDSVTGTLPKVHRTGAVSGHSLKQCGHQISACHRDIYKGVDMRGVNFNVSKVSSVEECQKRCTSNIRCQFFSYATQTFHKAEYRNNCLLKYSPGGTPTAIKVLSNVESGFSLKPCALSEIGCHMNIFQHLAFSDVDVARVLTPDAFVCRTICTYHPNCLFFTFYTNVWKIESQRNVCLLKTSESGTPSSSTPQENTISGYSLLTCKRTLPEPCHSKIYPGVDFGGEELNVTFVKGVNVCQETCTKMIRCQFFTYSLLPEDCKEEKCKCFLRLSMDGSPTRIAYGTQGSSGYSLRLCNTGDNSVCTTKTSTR
Type: biochemical
Method: The ability of compounds of formula (I) to inhibit plasma kallikrein (KLKB1), Factor XIIa (FXIIa), Factor XIa (FXIa), Factor Xa (FXa), Factor IIa (alpha-thrombin; FIIa), plasmin, trypsin, tissue kallikrein 1 (KLK1), Factor Vila (FVIIa), or FVIIa complexed with Tissue Factor, phospholipids and CaCl2 (FVIIa/TF/PL/CaCl2) was determined using the following biochemical assays in assay buffer (100 mM Tris, 150 mM NaCL, adjusted to a pH of 7.8 with HCl, and containing 0.1% (w/v) BSA and 0.05% (v/v) Tween20) in the presence of 1% (v/v) DMSO:
Evaluation of the Inhibition of KLKB1 Using an Endpoint Assay
Human KLKB1 (0.01 U/mL; Enzyme Research Laboratories) or rat KLKB1 (0.625 nM; produced in-house) was incubated for 1 h at room temperature with 0.10 μM fluorogenic substrate H-Pro-Phe-Arg-AMC (11295 from Bachem) and various concentrations of the test compound in assay buffer. Subsequently, PPACK 11 (Calbiochem) was added as a stop solution to achieve a final concentration of 1 μM and fluorescence was measured using an Envision Reader (PerkinElmer) with the wavelength excitation setting of 355 nm and the wavelength emission setting of 460 nm.
The number of the compound corresponds to the number of the Example in the experimental section.
Work on `Cc1nc(N2C[C@@H]3[C@H](C)[C@@H]3C2)ccc1Cn1cc(C(=O)N[C@@H]2CCc3c2ccnc3N)cn1` [Example 24, 1-[2-Methyl-6-((1S,5R,6R)-6-methyl-3-aza-bicyclo[3.1.0]hex-3-yl)-pyridin-3-ylmethyl]-1H-pyrazole-4-carboxylic acid ((R)-1-amino-6,7-dihydro-5H-[2]pyrindin-5-yl)-amide] yielded an IC50 of 0.6 nM.
Compound `Cc1nc(N2CC3CC3C2)ccc1Cn1cc(C(=O)N[C@@H]2CCc3c2ccnc3N)c(C(F)F)n1` (stereo partly drawn) [Example 19, N-[(5R)-1-Amino-5H,6H,7H-cyclopenta[c]pyridin-5-yl]-1-[(6-{3-azabicyclo[3.1.0]hexan-3-yl}-2-methylpyridin-3-yl)methyl]-3-(difluoromethyl)-1H-pyrazole-4-carboxamide] has an IC50 of 1 nM.
Compound `Cc1nc(N2CC3(CC3)C2)ccc1Cn1cc(C(=O)N[C@@H]2CCc3c2ccnc3N)cn1` [Example 26, 1-[6-(5-Aza-spiro[2.3]hex-5-yl)-2-methyl-pyridin-3-ylmethyl]-1H-pyrazole-4-carboxylic acid ((R)-1-amino-6,7-dihydro-5H-[2]pyrindin-5-yl)-amide] has an IC50 of 1.2 nM.
Work on `Cc1nc(N2CC3(CCC3)C2)ccc1Cn1cc(C(=O)N[C@@H]2CCc3c2ccnc3N)cn1` [Example 25, 1-[6-(2-Aza-spiro[3.3]hept-2-yl)-2-methyl-pyridin-3-ylmethyl]-1H-pyrazole-4-carboxylic acid ((R)-1-amino-6,7-dihydro-5H-[2]pyrindin-5-yl)-amide] yielded an IC50 of 2.1 nM.
With `Cc1cc2c(c(N)n1)CC[C@H]2NC(=O)c1cn(Cc2cnc(N3CC4C(C3)C4(F)F)nc2C)nn1` (stereo partly drawn) [Example 21, N-[(5R)-1-Amino-3-methyl-5H,6H,7H-cyclopenta[c]pyridin-5-yl]-1-[(2-{6,6-difluoro-3-azabicyclo[3.1.0]hexan-3-yl}-4-methylpyrimidin-5-yl)methyl]-1H-1,2,3-triazole-4-carboxamide] the IC50 was 1.4 nM.
`COc1nn(Cc2ccc(N3CC4CC4C3)nc2C)cc1C(=O)N[C@@H]1CCc2c1ccnc2N` (stereo partly drawn) [Example 22, N-[(5R)-1-Amino-5H,6H,7H-cyclopenta[c]pyridin-5-yl]-1-[(6-{3-azabicyclo[3.1.0]hexan-3-yl}-2-methylpyridin-3-yl)methyl]-3-methoxy-1H-pyrazole-4-carboxamide] showed an IC50 of 1.1 nM.
`Cc1nc(N2CC3C(C2)C3(F)F)ncc1Cn1cc(C(=O)N[C@@H]2CCc3c2ccnc3N)nn1` (stereo partly drawn) [Example 20, N-[(5R)-1-Amino-5H,6H,7H-cyclopenta[c]pyridin-5-yl]-1-[(2-{6,6-difluoro-3-azabicyclo[3.1.0]hexan-3-yl}-4-methylpyrimidin-5-yl)methyl]-1H-1,2,3-triazole-4-carboxamide] was tested, and the IC50 was 3.9 nM.
In the case of `Cc1nc(N2CC3C(C2)C3(F)F)ccc1Cn1cc(C(=O)N[C@@H]2CCc3c2ccnc3N)nn1` (stereo partly shown) [Example 8], the IC50 is reported as 5.5 nM.
Work on `Cc1nc(N2CC3CC3C2)ccc1Cn1cc(C(=O)N[C@@H]2CCc3c2ccnc3N)c(C(C)C)n1` (stereo partly shown) [Example 6] yielded an IC50 of 1 nM.
In the case of `Cc1nc(N2CC3C(C2)C3(C)C)ccc1Cn1cc(C(=O)N[C@@H]2CCc3c2ccnc3N)cn1` (stereo partly drawn) [Example 23, N-[(5R)-1-Amino-5H,6H,7H-cyclopenta[c]pyridin-5-yl]-1-[(6-{6,6-dimethyl-3-azabicyclo[3.1.0]hexan-3-yl}-2-methylpyridin-3-yl)methyl]-1H-pyrazole-4-carboxamide], the IC50 is reported as 9.9 nM.
